{"source": "patent US20060172006A1", "about": "“Sustained-release tramadol formulations with 24-hour clinical efficacy” (priority 2003, published 2006)", "origin": "cited, not measured here", "details": "human, in vivo", "note": "Structures can show the parent of a compound that is named as a salt."}
{"smiles": "COc1cccc(C2(O)CCCCC2CN(C)C)c1", "note": "(stereo not shown) [tramadol HCl, Tramadol hydrochloride]", "values": [{"measurement": "Estimated incidence of seizures in patients", "value": "less than 1%"}]}
